Results taken from PMC5761851, “Application of a phenotypic drug discovery strategy to identify biological and chemical starting points for inhibition of TSLP production in lung epithelial cells” (PLoS ONE, 2018).

Experiments:
Test in all cases: kinase selectivity panel
Format in all cases: biochemical
PKBα = target: T1, PKBα (Homo sapiens, UniProt P31749); conditions: read-out: percentage of control activity (POC), PKBα
T1 construct: purchased Eurofins Pharma Discovery Services (KinaseProfiler; Cerep BioPrint panel)
T1 sequence (P31749 whole entry): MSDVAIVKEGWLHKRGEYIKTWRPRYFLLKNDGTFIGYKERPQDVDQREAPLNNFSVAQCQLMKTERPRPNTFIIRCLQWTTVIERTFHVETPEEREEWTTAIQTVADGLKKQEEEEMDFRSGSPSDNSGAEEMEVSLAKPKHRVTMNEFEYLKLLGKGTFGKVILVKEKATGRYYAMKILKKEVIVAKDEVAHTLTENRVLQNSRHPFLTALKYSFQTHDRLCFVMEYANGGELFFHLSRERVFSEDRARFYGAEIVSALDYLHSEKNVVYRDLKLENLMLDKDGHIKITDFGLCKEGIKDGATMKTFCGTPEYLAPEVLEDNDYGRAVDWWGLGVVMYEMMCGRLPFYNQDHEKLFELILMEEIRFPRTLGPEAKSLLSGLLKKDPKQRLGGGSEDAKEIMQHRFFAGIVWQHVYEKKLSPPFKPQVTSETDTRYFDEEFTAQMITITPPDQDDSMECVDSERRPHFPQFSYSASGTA
How it was run: (§1)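 Tested at 10 μM in duplicate within a panel of 125 representative kinases. For selected activities, IC50 values were then determined from 9 concentrations, each run in duplicate.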

Mer = target: T2, Mer (Homo sapiens, UniProt Q12866); conditions: read-out: percentage of control activity (POC), Mer
T2 construct: purchased Eurofins Pharma Discovery Services (KinaseProfiler; Cerep BioPrint panel)
T2 sequence (Q12866 21-999): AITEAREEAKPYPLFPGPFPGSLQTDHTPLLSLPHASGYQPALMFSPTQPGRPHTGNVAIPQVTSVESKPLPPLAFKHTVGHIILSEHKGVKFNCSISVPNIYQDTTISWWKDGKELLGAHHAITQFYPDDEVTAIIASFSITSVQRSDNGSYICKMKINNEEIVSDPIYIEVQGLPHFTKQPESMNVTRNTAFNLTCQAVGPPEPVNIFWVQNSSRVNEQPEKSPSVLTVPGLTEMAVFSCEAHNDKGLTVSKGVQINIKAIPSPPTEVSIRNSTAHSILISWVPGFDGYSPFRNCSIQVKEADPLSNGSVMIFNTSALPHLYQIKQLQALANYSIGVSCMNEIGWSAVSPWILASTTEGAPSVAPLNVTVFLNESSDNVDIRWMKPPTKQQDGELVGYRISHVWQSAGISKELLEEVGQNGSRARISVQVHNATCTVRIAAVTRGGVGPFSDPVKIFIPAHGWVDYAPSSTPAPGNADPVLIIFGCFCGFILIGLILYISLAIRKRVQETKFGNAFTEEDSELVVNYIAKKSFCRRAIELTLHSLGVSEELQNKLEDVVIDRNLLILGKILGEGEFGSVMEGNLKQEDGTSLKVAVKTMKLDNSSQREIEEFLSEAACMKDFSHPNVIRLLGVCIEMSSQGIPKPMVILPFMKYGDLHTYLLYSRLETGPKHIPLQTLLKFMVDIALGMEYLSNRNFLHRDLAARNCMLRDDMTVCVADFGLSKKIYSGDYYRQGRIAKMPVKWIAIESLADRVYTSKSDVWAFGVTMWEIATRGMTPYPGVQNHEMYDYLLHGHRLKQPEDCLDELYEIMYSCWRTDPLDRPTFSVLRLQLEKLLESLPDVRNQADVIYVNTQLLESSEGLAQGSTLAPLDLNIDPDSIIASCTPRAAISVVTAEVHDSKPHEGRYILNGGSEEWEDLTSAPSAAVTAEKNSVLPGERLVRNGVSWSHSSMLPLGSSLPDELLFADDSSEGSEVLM
How it was run: as §1

EphB4 = target: T3, EphB4 (Homo sapiens, UniProt P54760); conditions: read-out: percentage of control activity (POC), EphB4
T3 construct: purchased Eurofins Pharma Discovery Services (KinaseProfiler; Cerep BioPrint panel)
T3 sequence (P54760 16-987): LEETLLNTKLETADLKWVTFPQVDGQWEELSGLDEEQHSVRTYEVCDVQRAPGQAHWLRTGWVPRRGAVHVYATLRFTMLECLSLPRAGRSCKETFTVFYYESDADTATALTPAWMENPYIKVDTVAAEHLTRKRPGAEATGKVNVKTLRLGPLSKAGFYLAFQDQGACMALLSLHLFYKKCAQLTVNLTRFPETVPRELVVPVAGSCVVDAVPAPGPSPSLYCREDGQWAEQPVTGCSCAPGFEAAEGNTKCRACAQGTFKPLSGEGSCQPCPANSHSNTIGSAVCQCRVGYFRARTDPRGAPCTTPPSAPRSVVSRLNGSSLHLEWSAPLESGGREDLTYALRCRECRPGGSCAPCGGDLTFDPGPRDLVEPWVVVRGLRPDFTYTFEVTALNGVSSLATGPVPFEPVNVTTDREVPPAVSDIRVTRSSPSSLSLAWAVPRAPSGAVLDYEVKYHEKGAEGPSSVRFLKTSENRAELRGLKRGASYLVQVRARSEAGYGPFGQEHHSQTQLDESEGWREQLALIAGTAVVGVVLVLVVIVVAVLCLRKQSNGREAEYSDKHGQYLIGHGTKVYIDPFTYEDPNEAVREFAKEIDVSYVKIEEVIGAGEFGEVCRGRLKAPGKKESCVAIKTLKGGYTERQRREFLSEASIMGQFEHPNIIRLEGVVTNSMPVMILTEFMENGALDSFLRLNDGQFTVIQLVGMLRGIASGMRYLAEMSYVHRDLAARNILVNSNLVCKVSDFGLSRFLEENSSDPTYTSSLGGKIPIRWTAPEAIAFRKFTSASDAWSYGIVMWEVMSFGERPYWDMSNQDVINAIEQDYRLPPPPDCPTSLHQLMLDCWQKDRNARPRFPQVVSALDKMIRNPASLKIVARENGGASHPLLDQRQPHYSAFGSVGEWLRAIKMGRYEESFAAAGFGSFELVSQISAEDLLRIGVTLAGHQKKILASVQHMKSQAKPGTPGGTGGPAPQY
How it was run: as §1

MLK1 = target: T4, MLK1 (Homo sapiens, UniProt P80192); conditions: read-out: percentage of control activity (POC), MLK1
T4 construct: purchased Eurofins Pharma Discovery Services (KinaseProfiler; Cerep BioPrint panel)
T4 sequence (P80192 whole entry): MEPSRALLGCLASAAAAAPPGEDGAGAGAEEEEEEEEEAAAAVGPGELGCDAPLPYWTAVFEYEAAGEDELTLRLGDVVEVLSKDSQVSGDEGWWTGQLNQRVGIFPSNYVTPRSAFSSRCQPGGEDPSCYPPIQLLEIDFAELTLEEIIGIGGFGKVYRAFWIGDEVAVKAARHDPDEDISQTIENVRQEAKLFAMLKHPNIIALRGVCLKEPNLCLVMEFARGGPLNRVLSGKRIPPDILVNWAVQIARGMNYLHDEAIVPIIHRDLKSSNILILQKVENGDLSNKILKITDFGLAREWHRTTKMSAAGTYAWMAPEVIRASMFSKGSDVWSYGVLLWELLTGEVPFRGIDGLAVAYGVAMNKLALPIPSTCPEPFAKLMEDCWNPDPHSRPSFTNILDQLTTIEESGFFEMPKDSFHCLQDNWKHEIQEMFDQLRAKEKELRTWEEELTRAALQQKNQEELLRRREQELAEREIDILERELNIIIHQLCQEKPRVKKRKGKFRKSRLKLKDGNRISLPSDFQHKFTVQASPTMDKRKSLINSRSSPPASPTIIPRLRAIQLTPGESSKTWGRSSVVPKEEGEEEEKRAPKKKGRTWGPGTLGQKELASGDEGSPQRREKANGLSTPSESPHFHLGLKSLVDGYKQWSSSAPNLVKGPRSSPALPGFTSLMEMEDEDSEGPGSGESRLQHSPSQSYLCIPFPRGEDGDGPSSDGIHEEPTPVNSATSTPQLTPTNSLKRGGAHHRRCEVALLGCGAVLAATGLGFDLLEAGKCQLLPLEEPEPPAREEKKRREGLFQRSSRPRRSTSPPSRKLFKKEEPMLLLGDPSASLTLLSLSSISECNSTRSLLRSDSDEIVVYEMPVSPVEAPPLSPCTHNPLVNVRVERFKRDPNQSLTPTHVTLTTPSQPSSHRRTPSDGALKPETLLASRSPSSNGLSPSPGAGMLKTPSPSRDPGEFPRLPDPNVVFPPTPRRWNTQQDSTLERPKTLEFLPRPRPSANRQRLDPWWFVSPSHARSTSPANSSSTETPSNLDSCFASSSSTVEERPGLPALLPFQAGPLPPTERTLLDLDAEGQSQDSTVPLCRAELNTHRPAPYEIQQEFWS
How it was run: as §1

PI3K (p110a/p85a) = target: T5, PI3K (p110a/p85a) (Homo sapiens, UniProt P42336); conditions: read-out: percentage of control activity (POC), PI3K (p110a/p85a)
T5 construct: purchased Eurofins Pharma Discovery Services (KinaseProfiler; Cerep BioPrint panel)
T5 sequence (P42336 whole entry): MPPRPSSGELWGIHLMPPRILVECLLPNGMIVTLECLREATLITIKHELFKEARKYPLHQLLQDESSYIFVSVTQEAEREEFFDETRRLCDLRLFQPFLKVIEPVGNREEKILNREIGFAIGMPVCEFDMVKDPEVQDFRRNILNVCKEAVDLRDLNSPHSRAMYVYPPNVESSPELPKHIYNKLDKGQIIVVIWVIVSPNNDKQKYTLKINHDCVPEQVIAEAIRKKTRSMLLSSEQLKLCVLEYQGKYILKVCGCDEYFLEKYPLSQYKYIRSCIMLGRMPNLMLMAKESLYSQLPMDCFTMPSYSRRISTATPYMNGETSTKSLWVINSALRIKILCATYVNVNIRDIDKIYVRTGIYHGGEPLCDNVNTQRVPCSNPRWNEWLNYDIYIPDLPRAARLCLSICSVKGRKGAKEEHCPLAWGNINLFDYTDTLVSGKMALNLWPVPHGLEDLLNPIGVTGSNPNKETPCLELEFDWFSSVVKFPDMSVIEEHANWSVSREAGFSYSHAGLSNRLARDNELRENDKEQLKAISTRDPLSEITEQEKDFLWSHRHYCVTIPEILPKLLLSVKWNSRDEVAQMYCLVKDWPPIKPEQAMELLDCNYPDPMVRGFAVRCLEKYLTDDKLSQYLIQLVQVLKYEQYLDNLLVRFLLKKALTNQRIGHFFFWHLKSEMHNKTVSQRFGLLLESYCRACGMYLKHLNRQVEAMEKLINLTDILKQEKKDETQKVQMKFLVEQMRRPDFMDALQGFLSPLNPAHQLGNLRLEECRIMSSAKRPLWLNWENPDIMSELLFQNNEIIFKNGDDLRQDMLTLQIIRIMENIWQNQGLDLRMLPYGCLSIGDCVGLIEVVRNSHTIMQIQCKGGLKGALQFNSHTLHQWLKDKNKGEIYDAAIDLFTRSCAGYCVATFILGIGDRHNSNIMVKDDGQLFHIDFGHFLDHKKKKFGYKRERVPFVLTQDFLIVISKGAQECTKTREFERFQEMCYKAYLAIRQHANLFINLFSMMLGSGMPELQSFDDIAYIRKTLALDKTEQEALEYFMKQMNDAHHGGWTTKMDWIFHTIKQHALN
T5 sequence (P27986 whole entry partner): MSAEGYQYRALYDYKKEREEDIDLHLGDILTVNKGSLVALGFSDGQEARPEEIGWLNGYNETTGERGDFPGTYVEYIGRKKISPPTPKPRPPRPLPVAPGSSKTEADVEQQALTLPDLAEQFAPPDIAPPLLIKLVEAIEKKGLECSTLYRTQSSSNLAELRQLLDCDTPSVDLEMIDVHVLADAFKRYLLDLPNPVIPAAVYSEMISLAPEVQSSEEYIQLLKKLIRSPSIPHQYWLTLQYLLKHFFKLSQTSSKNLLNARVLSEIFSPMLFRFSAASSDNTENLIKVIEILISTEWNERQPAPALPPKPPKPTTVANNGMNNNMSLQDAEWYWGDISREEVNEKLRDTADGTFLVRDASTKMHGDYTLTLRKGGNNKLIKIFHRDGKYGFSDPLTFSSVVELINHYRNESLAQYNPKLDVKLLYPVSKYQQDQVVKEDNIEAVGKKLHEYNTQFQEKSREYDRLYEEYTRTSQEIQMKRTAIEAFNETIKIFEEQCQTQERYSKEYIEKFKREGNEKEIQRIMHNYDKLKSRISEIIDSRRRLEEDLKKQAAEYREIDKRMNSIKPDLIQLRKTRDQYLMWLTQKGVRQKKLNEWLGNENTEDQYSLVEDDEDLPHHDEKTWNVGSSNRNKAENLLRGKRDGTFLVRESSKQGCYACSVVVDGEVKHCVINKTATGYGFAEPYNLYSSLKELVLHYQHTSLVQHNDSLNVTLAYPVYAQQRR
How it was run: as §1

SAPK4 = target: T6, SAPK4 (Homo sapiens, UniProt O15264); conditions: read-out: percentage of control activity (POC), SAPK4
T6 construct: purchased Eurofins Pharma Discovery Services (KinaseProfiler; Cerep BioPrint panel)
T6 sequence (O15264 1-365): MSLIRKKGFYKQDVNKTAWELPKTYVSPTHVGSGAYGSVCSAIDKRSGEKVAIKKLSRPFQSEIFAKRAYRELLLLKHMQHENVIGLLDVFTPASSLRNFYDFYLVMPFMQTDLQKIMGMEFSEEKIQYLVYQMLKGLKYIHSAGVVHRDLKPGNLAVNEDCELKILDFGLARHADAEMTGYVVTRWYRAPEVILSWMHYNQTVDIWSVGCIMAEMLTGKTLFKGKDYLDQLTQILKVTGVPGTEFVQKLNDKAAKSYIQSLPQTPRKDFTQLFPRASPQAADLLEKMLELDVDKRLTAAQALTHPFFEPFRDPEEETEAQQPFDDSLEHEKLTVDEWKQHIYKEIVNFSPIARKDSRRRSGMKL
How it was run: as §1

remaining activity at 10 µM (PKBα) [%] | remaining activity at 10 µM (Mer) [%] | remaining activity at 10 µM (EphB4) [%] | remaining activity at 10 µM (MLK1) [%] | remaining activity at 10 µM (PI3K (p110a/p85a)) [%] | remaining activity at 10 µM (SAPK4) [%] | Compound
95 | 95 | 91 | 99 | 97 | 96 | CC(C)(C)N1CCC(c2cc(-c3ccc(F)cc3Cl)c3cc[n+]([O-])c(-c4c(Cl)cccc4Cl)c3n2)CC1 [compound 2]
99 | 100 | 92 | 104 | 95 | 81 | COc1c(NC(=O)c2ccc(C)c(-c3nnc4c(NCC(C)(C)C)nccn34)c2)cc(C(C)(C)C)cc1NS(C)(=O)=O [compound 7, reference compound]

Second part, the compound before the results:

Compound | remaining activity at 10 µM (PKBα) [%] | remaining activity at 10 µM (Mer) [%] | remaining activity at 10 µM (EphB4) [%] | remaining activity at 10 µM (MLK1) [%] | remaining activity at 10 µM (PI3K (p110a/p85a)) [%] | remaining activity at 10 µM (SAPK4) [%]
Cn1cc(-c2cccc(-c3nc(C(=O)NC4C5CC6CC4CC(O)(C6)C5)c(N)nc3N)c2)cn1 (stereo not drawn) [compound 4] | 96 | 74 | 99 | 79 | 60 | 88
Cc1ccc(C(=O)NCC2CC2)cc1-c1ccc2c(c1)NC(=O)C21CCCC1 [compound 3] | 91 | 96 | 105 | 97 | 94 | 94
CS(=O)(=O)N1CCN(c2ccc(Nc3ncc(C(N)=O)c(NC4CC4)n3)cc2)CC1 [compound 5] | 86 | 1 | 36 | -1 | 96 | 32
